Assays:
[1] = test system: CCL2 secretion by primary human macrophages; test: CCL2 secretion in primary human macrophages (ELISA); type: cell-based; conditions: normalized to DMSO
Procedure: FIG. 11 illustrates the effect of Compound 1 Treatment on CCL2 Secretion in Primary Human Macrophages. Primary human monocytes were differentiated into macrophages and treated with varying doses of DMSO or Compound 1. The CCL2 levels were measured in the cell supernatant by ELISA 24 hours after drug treatment. The CCL2 secretion levels were normalized to the equivalent DMSO concentration. Data are plotted as the mean and standard deviation of 3 donors and representative of 2 independent experiments. *P<0.05; ** P<0.01, ***P<0.001; ****P<0.0001 by student's t-test. Abbreviations: CCL2, C—C motif chemokine ligand 2; DMSO, dimethyl sulfoxide; ELISA, enzyme-linked immunosorbent assay.
(§1) Peripheral blood mononuclear cells (PBMCs) were isolated from human blood using aseptic conditions. CD14+ monocytes were enriched from PBMC using Miltenyi Biotech kit (using CD14 microbeads). Fresh CD14+ monocytes were differentiated to macrophages using complete RPMI1640 medium with M-CSF recombinant human protein at the final concentration of 50 ng/mL. At Day 3-4, media containing M-CSF was added on monocytes/macrophages and incubated for 6-7 days in 5% CO2 incubator at 37° C. 10 mL 10 mM EDTA or Detachin was added to the culture dish containing macrophages, and let sit for 20-30 minutes, or until cells dissociate from the dish at room temperature. […]

[2] = test system: COL1A1, PAI-1, TNC, LRRC15 transcripts in A549 lung cancer cells; test: TGF-β-induced transcripts in A549 tumor cells (RT-PCR); type: cell-based, human
Procedure: Indicated gene transcripts were assessed by RT-PCR relative to GAPDH. Data were normalized to expression after TGF-β-treatment in the presence of only DMSO. Data are presented as mean of 3 biological replicates, and error bars indicate standard deviation. The graphs are representative of at least 2 independent experiments. *P<0.05; ** P<0.01, ***P<0.001; ****P<0.0001 by student's t-test.
Cells were directly lysed in Qiagen™ Buffer RLT Plus with 1% 2-Mercaptoethanol added. Total RNA from tumor samples and cell lines was isolated using Qiagen™ AllPrep® DNA/RNA 96 Kit according to manufacturer's protocol. Isolated RNA was analyzed with NanoDrop™ ONE Spectrophotometer for concentration. The RNA integrity was also analyzed on Agilent TapeStation 4200.
Complimentary deoxyribonucleic acid (cDNA) was prepared by using Invitrogen™ SuperScript™ III First-Strand Synthesis SuperMix for qRT-PCR. Up to 1 μg of RNA was prepared according to manufacturer's protocol, using Applied Biosystems™ Veriti™ 96-well thermal cycler. The reverse transcription (RT) program used for cDNA synthesis: • 1. 25° C., 10 minutes • 2. 50° C., 30 minutes • 3. 85° C., 5 minutes • 4. Add E. Coli RNase H, 37° C., 20 minutes • 5. Hold at 4° C. Quantitative Reverse Transcription Polymerase Chain Reaction (qRT-PCR).
The cDNA was diluted 1:3 fold in nuclease-free water for quantitative polymerase chain reaction (qPCR) setup. Human and mouse TaqMan™ assays for targeted genes were ordered through Applied Biosystems™. TaqMan™ assay selection was based on manufacturer's recommendation. The qRT-PCR was set up using Applied Biosystems™ TaqMan™ Fast Advanced Master Mix according to manufacturer's protocol. The qRT-PCR was run on QuantStudio™ 12 Flex with fast run mode: • 1. 95° C., 20 seconds • 2. 95° C., 1 second • 3. 60° C., 20 seconds • 4. Repeat steps 2-3, 39 times
The qPCR data was analyzed, and all cycle threshold (Ct) values were normalized to glyceraldehyde-3-phosphate dehydrogenase (GAPDH) (ΔCt). Analysis was plotted and presented using GraphPad Prism (GraphPad, Version 8.4.1, San Diego, CA).
The RNA expression was assessed 24 hours after TGF-β treatment.

[3] = test system: primary human macrophages; test: Primary macrophage viability (Cell Titer Glo); type: cell-based; conditions: Cell Titer Glo at the end of the experiment; any of the doses tested
Procedure: FIG. 12 illustrates the effect of Compound 1 on Primary Macrophage Viability. Primary human monocytes were differentiated into macrophages and treated with varying doses of DMSO or Compound 1. Cell viability was assessed by Cell Titer Glo 24 hours after drug treatment. Viability in drug treatment groups was normalized to the equivalent DMSO concentration. Data are plotted as the mean and standard deviation of 3 donors and representative of 2 independent experiments. Abbreviations: DMSO, dimethyl sulfoxide.
as §1, with “temperature. Macrophages were collected and washed in a 50 mL conical tube and centrifuged at 300-400×g for 4-5 minutes at room temperature.” for “temperature.”

[4] = 30 μM Compound 1, 10 ng/mL TGF-β, 24 hours

## C[C@@H]1CC[C@@H](Nc2nc(NC(C)(C)C)ncc2C(N)=O)C[C@H]1O [Compound 1, 2-(tert-butylamino)-4-((1R,3R,4R)-3-hydroxy-4-methylcyclohexylamino)-pyrimidine-5-carboxamide]
[1]; 7.4 μM Compound 1, supernatant
  reduction in CCL2: 36%
[1]; 20 μM Compound 1, supernatant
  reduction in CCL2: 43%
[2]; [4]
  COL1A1 reduced relative to TGF-β stimulation in the presence of DMSO alone: 56%
  PAI-1 reduced relative to TGF-β stimulation in the presence of DMSO alone: 64%
  TNC reduced relative to TGF-β stimulation in the presence of DMSO alone: 90%
[2]; Compound 1 at 30 μM, 15 μM or 5 μM
  Tenascin C upregulation with TGF-β treatment: inhibited by all doses of Compound 1 tested
[3]
  Macrophage cell viability relative to DMSO: No change in cell viability

From patent US20240165112A1, “THERAPY FOR THE TREATMENT OF CANCER” (Bristol-Myers Squibb Company, priority 2022, published 2024)
